Assays:
[1] = test system: Candida albicans; experiment: Phototoxicity against Candida albicans at 16.7 ug/disk in dark; assay type: functional; conditions: light or radiation study, read-out: IZ
[2] = test system: CHO; experiment: Genotoxicity in CHO cells assessed as mitotic inhibition at 2.6 ppm after 60 mins in dark followed by 5 W/m'2 UV irradiation for 30 mins; assay type: toxicity, cell-based, Cricetulus griseus; conditions: chinese hamster, 0.5 h
[3] = test system: Enterococcus faecalis; experiment: Phototoxicity against Streptococcus faecalis at 16.7 ug/disk after irradiation with W/m'2 UV light; assay type: functional; conditions: light or radiation study, read-out: IZ
[4] = test system: Staphylococcus aureus; experiment: Phototoxicity against Staphylococcus aureus at 16.7 ug/disk in dark; assay type: functional; conditions: light or radiation study, read-out: IZ
[5] = test system: CHO; experiment: Genotoxicity in CHO cells assessed as chromosomal aberrations at 83.5 ppm after 90 mins in dark; assay type: toxicity, cell-based, Cricetulus griseus; conditions: chinese hamster, 1.5 h
[6] = test system: Pseudomonas aeruginosa; experiment: Phototoxicity against Pseudomonas aeruginosa at 16.7 ug/disk in dark; assay type: functional; conditions: light or radiation study, read-out: IZ
[7] = test system: Staphylococcus aureus; experiment: Phototoxicity against Staphylococcus aureus at 16.7 ug/disk after irradiation with W/m'2 UV light; assay type: functional; conditions: light or radiation study, read-out: IZ
[8] = test system: CHO; experiment: Genotoxicity in CHO cells assessed as chromosomal aberrations at 20.8 ppm after 60 mins in dark followed by 5 W/m'2 UV irradiation for 30 mins; assay type: toxicity, cell-based, Cricetulus griseus; conditions: chinese hamster, 0.5 h
[9] = test system: CHO; experiment: Genotoxicity in CHO cells assessed as chromosomal aberrations at 41.7 ppm after 60 mins in dark followed by 5 W/m'2 UV irradiation for 30 mins; assay type: toxicity, cell-based, Cricetulus griseus; conditions: chinese hamster, 0.5 h
[10] = test system: Pseudomonas fluorescens; experiment: Phototoxicity against Pseudomonas fluorescens at 16.7 ug/disk in dark; assay type: functional; conditions: light or radiation study, read-out: IZ
[11] = test system: Pseudomonas fluorescens; experiment: Phototoxicity against Pseudomonas fluorescens at 16.7 ug/disk after irradiation with W/m'2 UV light; assay type: functional; conditions: light or radiation study, read-out: IZ
[12] = test system: Saccharomyces cerevisiae; experiment: Phototoxicity against Saccharomyces cerevisiae at 16.7 ug/disk after irradiation with W/m'2 UV light; assay type: functional; conditions: light or radiation study, read-out: IZ
[13] = test system: Candida albicans; experiment: Phototoxicity against Candida albicans at 16.7 ug/disk after irradiation with W/m'2 UV light; assay type: functional; conditions: light or radiation study, read-out: IZ
[14] = test system: Bacillus subtilis; experiment: Phototoxicity against Bacillus subtilis at 16.7 ug/disk in dark; assay type: functional; conditions: light or radiation study, read-out: IZ
[15] = test system: Bacillus subtilis; experiment: Phototoxicity against Bacillus subtilis at 16.7 ug/disk after irradiation with W/m'2 UV light; assay type: functional; conditions: light or radiation study, read-out: IZ
[16] = test system: CHO; experiment: Genotoxicity in CHO cells assessed as chromosomal aberrations at 10.4 ppm after 60 mins in dark followed by 5 W/m'2 UV irradiation for 30 mins; assay type: toxicity, cell-based, Cricetulus griseus; conditions: chinese hamster, 0.5 h
[17] = test system: CHO; experiment: Genotoxicity in CHO cells assessed as chromosomal aberrations at 83.5 ppm after 60 mins in dark followed by 5 W/m'2 UV irradiation for 30 mins; assay type: toxicity, cell-based, Cricetulus griseus; conditions: chinese hamster, 0.5 h
[18] = test system: Saccharomyces cerevisiae; experiment: Phototoxicity against Saccharomyces cerevisiae at 16.7 ug/disk in dark; assay type: functional; conditions: light or radiation study, read-out: IZ
[19] = test system: Escherichia coli; experiment: Phototoxicity against Escherichia coli at 16.7 ug/disk in dark; assay type: functional; conditions: light or radiation study, read-out: IZ
[20] = test system: Escherichia coli; experiment: Phototoxicity against Escherichia coli at 16.7 ug/disk after irradiation with W/m'2 UV light; assay type: functional; conditions: light or radiation study, read-out: IZ
[21] = test system: Enterococcus faecalis; experiment: Phototoxicity against Streptococcus faecalis at 16.7 ug/disk in dark; assay type: functional; conditions: light or radiation study, read-out: IZ
[22] = test system: CHO; experiment: Genotoxicity in CHO cells assessed as chromosomal aberrations at 5.2 ppm after 60 mins in dark followed by 5 W/m'2 UV irradiation for 30 mins; assay type: toxicity, cell-based, Cricetulus griseus; conditions: chinese hamster, 0.5 h
[23] = test system: Pseudomonas aeruginosa; experiment: Phototoxicity against Pseudomonas aeruginosa at 16.7 ug/disk after irradiation with W/m'2 UV light; assay type: functional; conditions: light or radiation study, read-out: IZ
[24] = test system: CHO; experiment: Genotoxicity in CHO cells assessed as chromosomal aberrations at 6.25 ppm after 60 mins in dark followed by 5 W/m'2 UV irradiation for 30 mins; assay type: toxicity, cell-based, Cricetulus griseus; conditions: chinese hamster, 0.5 h
[25] = test system: CHO; experiment: Genotoxicity in CHO cells assessed as chromosomal aberrations at 12.5 ppm after 60 mins in dark followed by 5 W/m'2 UV irradiation for 30 mins; assay type: toxicity, cell-based, Cricetulus griseus; conditions: chinese hamster, 0.5 h
[26] = test system: Staphylococcus aureus; experiment: Phototoxicity against Staphylococcus aureus at 100 ug/disk in dark; assay type: functional; conditions: light or radiation study, read-out: IZ
[27] = test system: CHO; experiment: Genotoxicity in CHO cells assessed as chromosomal aberrations at 0.78 ppm after 60 mins in dark followed by 5 W/m'2 UV irradiation for 30 mins; assay type: toxicity, cell-based, Cricetulus griseus; conditions: chinese hamster, 0.5 h
[28] = test system: CHO; experiment: Genotoxicity in CHO cells assessed as chromosomal aberrations at 0.39 ppm after 60 mins in dark followed by 5 W/m'2 UV irradiation for 30 mins; assay type: toxicity, cell-based, Cricetulus griseus; conditions: chinese hamster, 0.5 h
[29] = test system: Candida albicans; experiment: Phototoxicity against Candida albicans at 100 ug/disk after irradiation with W/m'2 UV light; assay type: functional; conditions: light or radiation study, read-out: IZ
[30] = test system: Candida albicans; experiment: Phototoxicity against Candida albicans at 100 ug/disk in dark; assay type: functional; conditions: light or radiation study, read-out: IZ
[31] = test system: Saccharomyces cerevisiae; experiment: Phototoxicity against Saccharomyces cerevisiae at 100 ug/disk in dark; assay type: functional; conditions: light or radiation study, read-out: IZ
[32] = test system: Pseudomonas aeruginosa; experiment: Phototoxicity against Pseudomonas aeruginosa at 100 ug/disk after irradiation with W/m'2 UV light; assay type: functional; conditions: light or radiation study, read-out: IZ
[33] = test system: CHO; experiment: Genotoxicity in CHO cells assessed as chromosomal aberrations at 0.19 ppm after 60 mins in dark followed by 5 W/m'2 UV irradiation for 30 mins; assay type: toxicity, cell-based, Cricetulus griseus; conditions: chinese hamster, 0.5 h
[34] = test system: Staphylococcus aureus; experiment: Phototoxicity against Staphylococcus aureus at 100 ug/disk after irradiation with W/m'2 UV light; assay type: functional; conditions: light or radiation study, read-out: IZ
[35] = test system: Escherichia coli; experiment: Phototoxicity against Escherichia coli at 100 ug/disk in dark; assay type: functional; conditions: light or radiation study, read-out: IZ
[36] = test system: CHO; experiment: Genotoxicity in CHO cells assessed as chromosomal aberrations at 12.5 ppm after 90 mins in dark; assay type: toxicity, cell-based, Cricetulus griseus; conditions: chinese hamster, 1.5 h
[37] = test system: Saccharomyces cerevisiae; experiment: Phototoxicity against Saccharomyces cerevisiae at 100 ug/disk after irradiation with W/m'2 UV light; assay type: functional; conditions: light or radiation study, read-out: IZ
[38] = test system: Escherichia coli; experiment: Phototoxicity against Escherichia coli at 100 ug/disk after irradiation with W/m'2 UV light; assay type: functional; conditions: light or radiation study, read-out: IZ
[39] = test system: CHO; experiment: Genotoxicity in CHO cells assessed as mitotic inhibition at 3.12 ppm after 60 mins in dark followed by 5 W/m'2 UV irradiation for 30 mins; assay type: toxicity, cell-based, Cricetulus griseus; conditions: chinese hamster, 0.5 h
[40] = test system: Pseudomonas fluorescens; experiment: Phototoxicity against Pseudomonas fluorescens at 100 ug/disk after irradiation with W/m'2 UV light; assay type: functional; conditions: light or radiation study, read-out: IZ
[41] = test system: CHO; experiment: Genotoxicity in CHO cells assessed as chromosomal aberrations at 1.56 ppm after 60 mins in dark followed by 5 W/m'2 UV irradiation for 30 mins; assay type: toxicity, cell-based, Cricetulus griseus; conditions: chinese hamster, 0.5 h
[42] = test system: Bacillus subtilis; experiment: Phototoxicity against Bacillus subtilis at 100 ug/disk in dark; assay type: functional; conditions: light or radiation study, read-out: IZ
[43] = test system: Pseudomonas fluorescens; experiment: Phototoxicity against Pseudomonas fluorescens at 100 ug/disk in dark; assay type: functional; conditions: light or radiation study, read-out: IZ
[44] = test system: Bacillus subtilis; experiment: Phototoxicity against Bacillus subtilis at 100 ug/disk after irradiation with W/m'2 UV light; assay type: functional; conditions: light or radiation study, read-out: IZ
[45] = test system: Enterococcus faecalis; experiment: Phototoxicity against Streptococcus faecalis at 100 ug/disk after irradiation with W/m'2 UV light; assay type: functional; conditions: light or radiation study, read-out: IZ
[46] = test system: Enterococcus faecalis; experiment: Phototoxicity against Streptococcus faecalis at 100 ug/disk in dark; assay type: functional; conditions: light or radiation study, read-out: IZ
[47] = test system: Pseudomonas aeruginosa; experiment: Phototoxicity against Pseudomonas aeruginosa at 100 ug/disk in dark; assay type: functional; conditions: light or radiation study, read-out: IZ

Structure (SMILES): COc1cc2nccc3c4ccccc4n(c1=O)c23 [5-METHOXYCANTHINONE]
- zone of inhibition at 16.7 µg/disc [1]: 0 mm
- Activity [2]: Active
- zone of inhibition at 16.7 µg/disc [3]: 0 mm
- zone of inhibition at 16.7 µg/disc [4]: 0 mm
- Activity [5]: 0%
- zone of inhibition at 16.7 µg/disc [6]: 0 mm
- zone of inhibition at 16.7 µg/disc [7]: 8 mm
- Activity [8]: Toxic
- Activity [9]: Toxic
- zone of inhibition at 16.7 µg/disc [10]: 0 mm
- zone of inhibition at 16.7 µg/disc [11]: 0 mm
- zone of inhibition at 16.7 µg/disc [12]: 6 mm
- zone of inhibition at 16.7 µg/disc [13]: 12 mm
- zone of inhibition at 16.7 µg/disc [14]: 8 mm
- zone of inhibition at 16.7 µg/disc [15]: 8 mm
- Activity [16]: Toxic
- Activity [17]: Toxic
- zone of inhibition at 16.7 µg/disc [18]: 0 mm
- zone of inhibition at 16.7 µg/disc [19]: 0 mm
- zone of inhibition at 16.7 µg/disc [20]: 7 mm
- zone of inhibition at 16.7 µg/disc [21]: 0 mm
- Activity [22]: Toxic
- zone of inhibition at 16.7 µg/disc [23]: 0 mm

Structure (SMILES): Cc1ncc(C2CCCN2C)c2c1[nH]c1ccccc12 (configuration not stated) [BREVIOCOLLINE]
- Activity [24]: Toxic
- Activity [25]: Toxic
- zone of inhibition at 100 µg/disc [26]: 0 mm
- Activity [27]: 37.1%
- Activity [28]: 5.5%
- zone of inhibition at 100 µg/disc [29]: 9.5 mm
- zone of inhibition at 100 µg/disc [30]: 0 mm
- zone of inhibition at 100 µg/disc [31]: 0 mm
- zone of inhibition at 100 µg/disc [32]: 13 mm
- Activity [33]: 0%
- zone of inhibition at 100 µg/disc [34]: 15.3 mm
- zone of inhibition at 100 µg/disc [35]: 0 mm
- Activity [36]: 0%
- zone of inhibition at 100 µg/disc [37]: 7 mm
- zone of inhibition at 100 µg/disc [38]: 15.5 mm
- Activity [39]: Active
- zone of inhibition at 100 µg/disc [40]: 7 mm
- Activity [41]: 56%
- zone of inhibition at 100 µg/disc [42]: 0 mm
- zone of inhibition at 100 µg/disc [43]: 0 mm
- zone of inhibition at 100 µg/disc [44]: 12.5 mm
- zone of inhibition at 100 µg/disc [45]: 14 mm
- zone of inhibition at 100 µg/disc [46]: 0 mm
- zone of inhibition at 100 µg/disc [47]: 0 mm
